Reference: ChEMBL document CHEMBL3407479, “Structure-activity relationship for the oxadiazole class of antibiotics” (J Med Chem, 2015)
Values after ≈ are worked out from the molar mass of the structure shown.

Tested on: Staphylococcus aureus
Assay: Antibacterial activity against methicillin-sensitive Staphylococcus aureus ATCC 29213 after 16 to 20 hrs by broth microdilution method
Assay type: functional

MIC | SMILES
≥ 128 µg/mL | Fc1ccc(Oc2ccc(-c3noc(-c4c[nH]cn4)n3)cc2)cc1
≥ 128 µg/mL | Cl.NC(Cc1ccccc1)c1nc(-c2ccc(Oc3ccccc3)cc2)no1 (centres undefined)
≥ 128 µg/mL | c1ccc(Oc2ccc(-c3noc(-c4ccncc4)n3)cc2)cc1
≥ 128 µg/mL | Cc1nc(-c2ccc(Oc3ccccc3)cc2)no1
≥ 128 µg/mL | NS(=O)(=O)c1ccc(-c2nc(-c3ccc(Oc4ccc(C(F)(F)F)cc4)cc3)no2)cc1
≥ 128 µg/mL | COc1ccc(-c2nc(-c3ccc(Oc4ccc(C(F)(F)F)cc4)cc3)no2)cc1OC
≥ 128 µg/mL | Oc1ccc(-c2nc(-c3ccc(Oc4ccc(F)cc4)cc3)no2)cn1
4 µg/mL (≈ 9.38 µM) | OCC#Cc1c[nH]nc1-c1nc(-c2ccc(Oc3ccc(C(F)(F)F)cc3)cc2)no1
≥ 128 µg/mL | FC(F)(F)c1ccc(Oc2ccc(-c3noc(-c4cc[nH]n4)n3)cc2)cc1
≥ 128 µg/mL | O=C(O)c1ccc(-c2nc(-c3ccc(Oc4ccc(F)cc4)cc3)no2)cc1
≥ 128 µg/mL | O=C1CC(c2nc(-c3ccc(Oc4ccc(C(F)(F)F)cc4)cc3)no2)NC(=O)N1 (centres undefined)
≥ 128 µg/mL | Nc1c[nH]c(-c2nc(-c3ccc(Oc4ccc(F)cc4)cc3)no2)c1
≥ 128 µg/mL | Fc1ccc(Oc2ccc(-c3noc(-c4cc[nH]n4)n3)cc2)cc1
≥ 128 µg/mL | C[Si](C)(C)C#Cc1c[nH]nc1-c1nc(-c2ccc(Oc3ccc(C(F)(F)F)cc3)cc2)no1
≥ 128 µg/mL | COc1ccc(-c2nc(-c3ccc(Oc4ccccc4)cc3)no2)cc1N
≥ 128 µg/mL | Oc1cccc(-c2nc(-c3ccc(Oc4ccccc4)cc3)no2)c1
4 µg/mL (≈ 11.5 µM) | Oc1ccc(-c2nc(-c3ccc(Oc4ccccc4)cc3)no2)cc1F
≥ 128 µg/mL | c1ccc(Oc2ccc(-c3noc(C4CCOCC4)n3)cc2)cc1
8 µg/mL (≈ 19.2 µM) | O=[N+]([O-])c1c[nH]c(-c2nc(-c3ccc(Oc4ccc(C(F)(F)F)cc4)cc3)no2)c1
≥ 128 µg/mL | Nc1ccc(-c2nc(-c3ccc(Oc4ccccc4)cc3)no2)cc1F
≥ 128 µg/mL | CC(=O)N1CCC(c2nc(-c3ccc(Oc4ccc(F)cc4)cc3)no2)CC1
≥ 128 µg/mL | Fc1ccc(Oc2ccc(-c3noc(-c4c[nH]c5ncccc45)n3)cc2)cc1
≥ 128 µg/mL | NCCCCc1nc(-c2ccc(Oc3ccccc3)cc2)no1
≥ 128 µg/mL | CS(=O)(=O)Nc1ccc(-c2nc(-c3ccc(Oc4ccc(C(F)(F)F)cc4)cc3)no2)cc1
≥ 128 µg/mL | O=C(Nc1c[nH]nc1-c1nc(-c2ccc(Oc3ccc(C(F)(F)F)cc3)cc2)no1)c1ccccc1

MIC | SMILES
≥ 128 µg/mL | [O-][n+]1ccc(-c2nc(-c3ccc(Oc4ccccc4)cc3)no2)cc1
4 µg/mL (≈ 9.23 µM) | Nc1c(F)cc(-c2nc(-c3ccc(Oc4ccc(C(F)(F)F)cc4)cc3)no2)cc1F
≥ 128 µg/mL | Nc1ccc(-c2nc(-c3ccc(Oc4ccccc4)cc3)no2)c(O)c1
≥ 128 µg/mL | O=P(O)(O)c1ccc(-c2nc(-c3ccc(Oc4ccc(F)cc4)cc3)no2)cc1
≥ 128 µg/mL | Fc1ccc(-c2nc(-c3ccc(Oc4ccccc4)cc3)no2)cc1
≥ 128 µg/mL | Nc1ccc(-c2nc(-c3ccc(Oc4ccc(F)cc4)cc3)no2)cc1
4 µg/mL (≈ 12.1 µM) | Nc1ccc(-c2nc(-c3ccc(Oc4ccccc4)cc3)no2)cc1
≥ 128 µg/mL | Fc1ccc(-c2nc(-c3ccc(Oc4ccc(C(F)(F)F)cc4)cc3)no2)cc1
≥ 128 µg/mL | Fc1ccc(Oc2ccc(-c3noc(-c4cc[nH]c4)n3)cc2)cc1
≥ 128 µg/mL | O=[N+]([O-])c1cc(-c2nc(-c3ccc(Oc4ccc(F)cc4)cc3)no2)ccc1O
2 µg/mL (≈ 5.03 µM) | N#Cc1c[nH]nc1-c1nc(-c2ccc(Oc3ccc(C(F)(F)F)cc3)cc2)no1
≥ 128 µg/mL | Nc1cncc(-c2nc(-c3ccc(Oc4ccc(C(F)(F)F)cc4)cc3)no2)c1
≥ 128 µg/mL | Cc1ccc(S(=O)(=O)N2CCC(c3nc(-c4ccc(Oc5ccc(F)cc5)cc4)no3)CC2)cc1
≥ 128 µg/mL | CC(C)c1cc(-c2nc(-c3ccc(Oc4ccc(F)cc4)cc3)no2)n[nH]1
4 µg/mL (≈ 8.92 µM) | Fc1ccc(Oc2ccc(-c3noc(-c4n[nH]cc4I)n3)cc2)cc1
≥ 128 µg/mL | COc1ccc(-c2nc(-c3ccc(Oc4ccc(F)cc4)cc3)no2)cc1OC
≥ 128 µg/mL | COC(=O)c1ccc(-c2nc(-c3ccc(Oc4ccc(F)cc4)cc3)no2)cc1
2 µg/mL (≈ 5.73 µM) | O=[N+]([O-])c1c[nH]nc1-c1nc(-c2ccc(Oc3ccccc3)cc2)no1
16 µg/mL (≈ 42.9 µM) | FC(F)(F)c1ccc(Oc2ccc(-c3noc(-c4cn[nH]n4)n3)cc2)cc1
≥ 128 µg/mL | CCOP(=O)(OCC)c1c[nH]nc1-c1nc(-c2ccc(Oc3ccc(C(F)(F)F)cc3)cc2)no1
≥ 128 µg/mL | Nc1cncc(-c2nc(-c3ccc(Oc4ccc(F)cc4)cc3)no2)c1
≥ 128 µg/mL | FC(F)(F)c1ccc(Oc2ccc(-c3noc(-c4ccc(Br)cc4)n3)cc2)cc1
≥ 128 µg/mL | Oc1ccccc1-c1nc(-c2ccc(Oc3ccccc3)cc2)no1
4 µg/mL (≈ 10.3 µM) | Nc1c[nH]nc1-c1nc(-c2ccc(Oc3ccc(C(F)(F)F)cc3)cc2)no1
8 µg/mL (≈ 20.8 µM) | Oc1c(F)cc(-c2nc(-c3ccc(Oc4ccc(F)cc4)cc3)no2)cc1F

MIC | SMILES
≥ 128 µg/mL | O=[N+]([O-])c1ccc(-c2nc(-c3ccc(Oc4ccc(C(F)(F)F)cc4)cc3)no2)cc1
1 µg/mL (≈ 2.61 µM) | Brc1c[nH]nc1-c1nc(-c2ccc(Oc3ccccc3)cc2)no1
≥ 128 µg/mL | NC(=O)c1ccc(-c2nc(-c3ccc(Oc4ccc(F)cc4)cc3)no2)cc1
≥ 128 µg/mL | CCOP(=O)(OCC)c1ccc(-c2nc(-c3ccc(Oc4ccc(F)cc4)cc3)no2)cc1
≥ 128 µg/mL | Fc1ccc(Oc2ccc(-c3noc(-c4ccc(Br)cc4)n3)cc2)cc1
≥ 32 µg/mL | O=[N+]([O-])c1ccc(-c2nc(-c3ccc(Oc4ccccc4)cc3)no2)cc1
2 µg/mL (≈ 5.66 µM) | c1ccc(Oc2ccc(-c3noc(-c4ccc5[nH]ccc5c4)n3)cc2)cc1
≥ 128 µg/mL | Nc1cc(-c2nc(-c3ccc(Oc4ccc(F)cc4)cc3)no2)ccc1O
≥ 128 µg/mL | CC(=O)Nc1ccc(-c2nc(-c3ccc(Oc4ccc(C(F)(F)F)cc4)cc3)no2)cc1
1 µg/mL (≈ 2.87 µM) | Oc1ccc(-c2nc(-c3ccc(Oc4ccc(F)cc4)cc3)no2)cc1
2 µg/mL (≈ 4.79 µM) | O=[N+]([O-])c1c[nH]nc1-c1nc(-c2ccc(Oc3ccc(C(F)(F)F)cc3)cc2)no1
≥ 128 µg/mL | FC(F)(F)c1ccc(Oc2ccc(-c3noc(-c4n[nH]c5ccccc45)n3)cc2)cc1
≥ 128 µg/mL | FC(F)(F)c1ccc(Oc2ccc(-c3noc(-c4n[nH]cc4NC4CCCCC4)n3)cc2)cc1
4 µg/mL (≈ 11 µM) | Oc1ccc(-c2nc(-c3ccc(Oc4ccc(F)cc4)cc3)no2)cc1O
8 µg/mL (≈ 20.8 µM) | C=CCOc1cc(N)ccc1-c1nc(-c2ccc(Oc3ccccc3)cc2)no1
≥ 128 µg/mL | COc1ccc(-c2nc(-c3ccc(Oc4ccc(C(F)(F)F)cc4)cc3)no2)cc1[N+](=O)[O-]
≥ 128 µg/mL | O=C1C[C@H](c2nc(-c3ccc(Oc4ccc(C(F)(F)F)cc4)cc3)no2)CN1
≥ 128 µg/mL | Oc1cc(-c2nc(-c3ccc(Oc4ccccc4)cc3)no2)ccc1I
≥ 128 µg/mL | Fc1ccc(Oc2ccc(-c3noc(-c4n[nH]c5ccccc45)n3)cc2)cc1
16 µg/mL (≈ 47.4 µM) | Nc1c[nH]nc1-c1nc(-c2ccc(Oc3ccc(F)cc3)cc2)no1
2 µg/mL (≈ 4.8 µM) | Oc1ccc(-c2nc(-c3ccc(Oc4ccc(C(F)(F)F)cc4)cc3)no2)cc1F
0.5 µg/mL (≈ 1.38 µM) | CC(C)Nc1c[nH]nc1-c1nc(-c2ccc(Oc3ccccc3)cc2)no1
≥ 128 µg/mL | Oc1ccc(-c2nc(-c3ccc(Oc4ccc(C(F)(F)F)cc4)cc3)no2)cn1
≥ 128 µg/mL | FC(F)(F)c1ccc(Oc2ccc(-c3noc(-c4n[nH]cc4NC4CCCC4)n3)cc2)cc1
2 µg/mL (≈ 4.83 µM) | Oc1ccc(-c2nc(-c3ccc(Oc4ccc(C(F)(F)F)cc4)cc3)no2)cc1O

MIC | SMILES
≥ 128 µg/mL | O=c1[nH]c(-c2ccc(Oc3ccccc3)cc2)no1
≥ 128 µg/mL | FC(F)(F)c1ccc(Oc2ccc(-c3noc(-c4nc[nH]n4)n3)cc2)cc1
1 µg/mL (≈ 2.32 µM) | Ic1c[nH]nc1-c1nc(-c2ccc(Oc3ccccc3)cc2)no1
≥ 128 µg/mL | COc1cc(-c2nc(-c3ccc(Oc4ccccc4)cc3)no2)ccc1N
1 µg/mL (≈ 2.22 µM) | FC(F)(F)c1ccc(Oc2ccc(-c3noc(-c4n[nH]cc4Br)n3)cc2)cc1
2 µg/mL (≈ 4.82 µM) | Nc1ccc(-c2nc(-c3ccc(Oc4ccc(C(F)(F)F)cc4)cc3)no2)cc1F
≥ 128 µg/mL | CC(C)CNc1c[nH]nc1-c1nc(-c2ccc(Oc3ccc(C(F)(F)F)cc3)cc2)no1
8 µg/mL (≈ 23.2 µM) | Oc1ccc(Cc2nc(-c3ccc(Oc4ccccc4)cc3)no2)cc1
≥ 128 µg/mL | CC(C)(C)OC(=O)N1CCC(Nc2c[nH]nc2-c2nc(-c3ccc(Oc4ccc(C(F)(F)F)cc4)cc3)no2)CC1
1 µg/mL (≈ 2.72 µM) | O=[N+]([O-])c1c[nH]nc1-c1nc(-c2ccc(Oc3ccc(F)cc3)cc2)no1
≥ 128 µg/mL | O=[N+]([O-])c1c[nH]c(-c2nc(-c3ccc(Oc4ccc(F)cc4)cc3)no2)c1
32 µg/mL | Cl.c1ccc(Oc2ccc(-c3noc(C4CCNCC4)n3)cc2)cc1
≥ 128 µg/mL | O=C1C[C@@H](c2nc(-c3ccc(Oc4ccc(C(F)(F)F)cc4)cc3)no2)CN1
≥ 128 µg/mL | COc1cc(-c2nc(-c3ccc(Oc4ccc(C(F)(F)F)cc4)cc3)no2)ccc1O
16 µg/mL (≈ 50.1 µM) | Nc1c[nH]nc1-c1nc(-c2ccc(Oc3ccccc3)cc2)no1
1 µg/mL (≈ 2.95 µM) | Clc1c[nH]nc1-c1nc(-c2ccc(Oc3ccccc3)cc2)no1
8 µg/mL (≈ 18 µM) | O=[N+]([O-])c1cc(-c2nc(-c3ccc(Oc4ccc(C(F)(F)F)cc4)cc3)no2)cnc1O
2 µg/mL (≈ 4.6 µM) | Oc1c(F)cc(-c2nc(-c3ccc(Oc4ccc(C(F)(F)F)cc4)cc3)no2)cc1F
≥ 128 µg/mL | COc1ccc(-c2nc(-c3ccc(Oc4ccccc4)cc3)no2)cc1[N+](=O)[O-]
≥ 128 µg/mL | c1ccc(Oc2ccc(-c3noc(-c4ccc5[nH]ncc5c4)n3)cc2)cc1
64 µg/mL | Cl.c1ccc(Oc2ccc(-c3noc(C4CCCN4)n3)cc2)cc1 (centres undefined)
≥ 128 µg/mL | CCn1ccc(-c2nc(-c3ccc(Oc4ccc(F)cc4)cc3)no2)n1
≥ 128 µg/mL | Nc1cc(-c2nc(-c3ccc(Oc4ccc(C(F)(F)F)cc4)cc3)no2)cnc1O
8 µg/mL (≈ 20.3 µM) | O=[N+]([O-])c1cc(-c2nc(-c3ccc(Oc4ccc(F)cc4)cc3)no2)cnc1O
≥ 128 µg/mL | CCCCNc1c[nH]nc1-c1nc(-c2ccc(Oc3ccc(C(F)(F)F)cc3)cc2)no1

SMILES | MIC
Nc1ccc(-c2nc(-c3ccc(Oc4ccc(C(F)(F)F)cc4)cc3)no2)cc1 | 1 µg/mL (≈ 2.52 µM)
Fc1ccc(Oc2ccc(-c3noc(-c4ccc5[nH]ccc5c4)n3)cc2)cc1 | 1 µg/mL (≈ 2.69 µM)
Cl.Nc1ccc(-c2nc(-c3ccc(Oc4ccc(C(F)(F)F)cc4)cc3)no2)cc1 | 1 µg/mL
Oc1ccc(-c2nc(-c3ccc(Oc4ccccc4)cc3)no2)cc1 | 1 µg/mL (≈ 3.03 µM)
